Data taken from patent US7211436B1, “Compositions and methods for regulating abscisic acid-induced closure of plant stomata” (The Penn State Research Foundation, priority 1999, dated 2007).

Tests used:
[1] = system: guard cells (stomatal aperture); assay: Stomatal closure in abaxial epidermal peels of transformed V. faba leaves; assay type: cell-based, Vicia faba; details: for change in half aperture of stomata, closure: 1 h, illuminated
Protocol: (§1) Analysis of AAPK mutants for stomatal aperture changes and anion channel activation. V. faba leaves were biolistically transformed with the pGFP, pAAPK-GFP, or pAAPK(K43A)-GFP constructs. The V. faba leaves were bombarded with gold particles (Bio-Rad) coated with one of the DNA constructs. Bombardment was via a particle delivery system 1000/He (Bio-Rad) as described. (J. Marc et al., 1998, Plant Cell 10:1927).
(§2) Abaxial epidermal peels were isolated and the transformed guard cells were assayed for ABA-mediated prevention of stomatal opening and for stomatal closure stimulated by ABA, CO2 or darkness. Conditions were as in Assman, S., and Baskin, T. (1998) J. Exp. Bot. 49:163 except that the incubation solution was 10 mM MES, 30 mM KCl, pH=6.1, with or without 50 μM {±} cis,trans-ABA. For closure experiments, the transformed leaves were illuminated with 0.20 mmol m^−2 s^−1 white light for 2.5 h to open the stomata. The abaxial epidermal peels were placed in incubation solution and treated with either darkness, 25 μM {±} cis,trans-ABA or with 700 ppm CO2 for 1 h.

[2] = system: guard cells (stomatal aperture); assay: ABA-mediated prevention of stomatal opening in abaxial epidermal peels of transformed V. faba leaves; assay type: cell-based, Vicia faba; details: ABA 50 μM, illuminated
Protocol: as §1, §2

AAPK = assay: Kinase activity of immunoprecipitated GFP fusion proteins with histone III-S as substrate; assay type: biochemical, Vicia faba; details: cells transfected with pAAPK-GFP; protoplasts treated with ABA prior to isolation of the proteins
Excerpt: Analysis of AAPK mutants and hybrid expression DNA constructs for ABA-activated protein kinase activity. 1.5×10^7 V. faba guard cell protoplasts were transfected with either the vector, pGFP, or the constructs, pAAPK-GFP or pAAPK(K43A)-GFP by polyethylene glycol (PEG)-mediated DNA transfer. After uptake and expression, protoplasts were lysed and recombinant protein was immunoprecipitated with anti-GFP peptide antibodies (Clontech) and protein A-Sepharose CL-4B (Amersham Pharmacia Biotech). Immunoprecipitated proteins were assayed for kinase activity using histone III-S (Sigma) as substrate.

slow anion channels = assay: Whole-cell patch-clamp of guard cell protoplasts, anion channel activation; assay type: cell-based, Vicia faba
Protocol: Anion channel activation was measured in guard cell protoplasts. Whole-cell patch-clamp experiments were performed according to established methods. Pipette solution contained 100 mM KCl, 50 mM tetramethylammonium, 2 mM MgCl, 6.7 mM EGTA-(Tris)2, 3.35 mM CaCl2, 10 mM HEPES, pH=7.1 (Tris) and 5 mM Mg-ATP. Bath solution contained 40 mM CaCl2, 2 mM MgCl and 10 mM MES-Tris pH5.6. Osmolalities were adjusted with sorbitol to 500 mosmol/kg (in the pipette) or 470 mosmol/kg (in the bath). Protein kinase inhibitor K-252a (Calbiochem) was prepared as a stock solution at 2 mM in dimethyl sulfoxide (DMSO).

native AAPK = assay: Native AAPK activity; assay type: biochemical, Vicia faba
Protocol: Isolation and Identification of ABA-Activated Protein Kinase (AAPK). Guard cell protoplasts (2×10^6; 99.6% pure) were prepared from Vicia faba. Protoplasts were treated with either darkness, ABA or elevated CO2 concentrations prior to protein isolation. Protoplast proteins were extracted and subjected to 2-dimensional gel electrophoresis. Separation was via 12% SDS-polyacrylamide gel electrophoresis (SDS-PAGE). Kinase autophosphorylation activity of subsequently renatured proteins was detected by established methods.

[3] = AAPK(K43A)-GFP transformed guard cells, ABA 25 μM or CO2 700 ppm
[4] = AAPK(K43A)-GFP, untransformed guard cells, ABA 25 μM or CO2 700 ppm

SMILES	change in half aperture of stomata, closure [1, 3]	change in half aperture of stomata, closure [1, 4]	change in half aperture of stomata, closure ([1]; AAPK-GFP column, untransformed guard cells, ABA 25 μM)	change in half aperture of stomata, closure ([1]; AAPK-GFP transformed guard cells, ABA 25 μM)	change in half aperture of stomata, closure ([1]; GFP column, untransformed guard cells, ABA 25 μM)	change in half aperture of stomata, closure ([1]; GFP transformed guard cells, ABA 25 μM)	change in half aperture of stomata, opening ([2]; AAPK(K43A)-GFP transformed guard cells)	change in half aperture of stomata, opening ([2]; AAPK(K43A)-GFP, untransformed guard cells)	change in half aperture of stomata, opening ([2]; AAPK-GFP column, untransformed guard cells)	change in half aperture of stomata, opening ([2]; AAPK-GFP transformed guard cells)	change in half aperture of stomata, opening ([2]; GFP column, untransformed guard cells)	change in half aperture of stomata, opening ([2]; GFP transformed guard cells)	histone phosphorylation activity of immunoprecipitate after ABA treatment of protoplasts (AAPK)	effect on slow anion channels (slow anion channels; V. faba guard cells)	effect on anion current magnitude (slow anion channels; whole-cell configuration)	effect on ABA-induced stomatal closure ([1]; kinase inhibitor, untransformed cells)	effect on native AAPK activity (native AAPK)	effect on ABA regulation of anion channels (slow anion channels; untransformed cells)
CC1=CC(=O)CC(C)(C)C1(O)/C=C/C(C)=C\C(=O)O (racemic) [ABA, abscisic acid]	−0.36 ± 0.26 (56) micrometers	−2.55 ± 0.21 (56) micrometers	−2.58 ± 0.24 (36) micrometers	−2.59 ± 0.30 (36) micrometers	−2.54 ± 0.35 (36) micrometers	−2.52 ± 0.29 (36) micrometers	0.42 ± 0.17 (46) micrometers	0.44 ± 0.15 (46) micrometers	0.41 ± 0.28 (36) micrometers	0.43 ± 0.22 (36) micrometers	0.45 ± 0.27 (36) micrometers	0.42 ± 0.22 (36) micrometers	significantly enhanced	activated	increased			
O=C=O [CO2]	−2.23 ± 0.44 (36) micrometers	−2.31 ± 0.46 (36) micrometers																
COC(=O)[C@@]1(O)C[C@H]2O[C@]1(C)n1c3ccccc3c3c4c(c5c6ccccc6n2c5c31)C(=O)NC4 [K-252a]																inhibits	inhibits	inhibits
